Results published in patent US12331063B2, “Hetero-bicyclic inhibitors of KRAS” (Incyte Corporation, priority 2021, dated 2025).

target: KRAS G12D (Homo sapiens, UniProt P01116, G12D); experiment: GDP-GTP exchange assay (bodipy-GDP/GppNHp, SOS1), KRAS G12D; format: biochemical; settings: bodipy-loaded KRAS G12D 2.5 nM, 4 hours incubation after adding GppNHp-SOS1 mixture
Experimental: The inhibitor potency of the exemplified compounds was determined in a fluorescence based guanine nucleotide exchange assay, which measures the exchange of bodipy-GDP (fluorescently labeled GDP) for GppNHp (Non-hydrolyzable GTP analog) to generate the active state of KRAS in the presence of SOS1 (guanine nucleotide exchange factor). Inhibitors were serially diluted in DMSO and a volume of 0.1 μL was transferred to the wells of a black low volume 384-well plate. 5 μL/well volume of bodipy-loaded KRAS G12C diluted to 5 nM in assay buffer (25 mM Hepes pH 7.5, 50 mM NaCl, 10 mM MgCl2 and 0.01% Brij-35) was added to the plate and pre-incubated with inhibitor for 2 hours at ambient temperature. Appropriate controls (enzyme with no inhibitor or with a G12C inhibitor (AMG-510)) were included on the plate. The exchange was initiated by the addition of a 5 μL/well volume containing 1 mM GppNHp and 300 nM SOS1 in assay buffer. The 10 μL/well reaction concentration of the bodipy-loaded KRAS G12C, GppNHp, and SOS1 were 2.5 nM, 500 uM, and 150 nM, respectively. The reaction plates were incubated at ambient temperature for 2 hours, a time estimated for complete GDP-GTP exchange in the absence of inhibitor. For the KRAS G12D and G12V mutants, similar guanine nucleotide exchange assays were used with 2.5 nM as final concentration for the bodipy loaded KRAS proteins and with 4 hours and 3 hours incubation after adding GppNHp-SOS1 mixture for G12D and G12V respectively. A cyclic peptide described to selectively bind G12D mutant (Sakamoto et al., BBRC 484.3 (2017), 605-611) or internal compounds with confirmed binding were used as positive controls in the assay plates. Fluorescence intensities were measured on a PheraStar plate reader instrument (BMG Labtech) with excitation at 485 nm and emission at 520 nm.
Either GraphPad prism or XLfit was used to analyze the data. The IC50 values were derived by fitting the data to a four parameter logistic equation producing a sigmoidal dose-response curve with a variable Hill coefficient. Prism equation: Y=Bottom+(Top−Bottom)/(1+10^((Log IC50−X)*Hill slope)); XLfit equation: Y=(A+((B−A)/(1+((X/C)^D)))) where X is the logarithm of inhibitor concentration and Y is the response.
The symbol “†” indicates IC50≤100 nM, “††” indicates IC50>100 nM but ≤1 μM; and “†††” indicates IC50 is >1 μM but ≤5 μM, “††††” indicates IC50 is >5 μM but ≤10 μM.

KRAS G12D, sequence (P01116 1-188 isoform P01116-2 G12D): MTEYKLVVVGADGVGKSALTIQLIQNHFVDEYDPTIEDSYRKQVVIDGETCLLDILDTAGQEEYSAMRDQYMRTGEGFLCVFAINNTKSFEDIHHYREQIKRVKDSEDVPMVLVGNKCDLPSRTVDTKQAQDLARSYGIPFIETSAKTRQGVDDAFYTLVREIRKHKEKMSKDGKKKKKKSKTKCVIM

CN(C)C1CN(c2nc(N3C4CCC3CNC4)c3ccc(-c4cc(O)cc5ccccc45)c(F)c3c2C#N)C1 [Example 1, 1-(3,8-diazabicyclo[3.2.1]octan-8-yl)-3-(3-(dimethylamino)azetidin-1-yl)-5-fluoro-6-(3-hydroxynaphthalen-1-yl)isoquinoline-4-carbonitrile] and CN(C)C1CN(c2nc(N3C4CCC3CNC4)c3cc(CCC#N)c(-c4cc(O)cc5ccccc45)c(F)c3c2C#N)C1 [Example 6, 1-(3,8-diazabicyclo[3.2.1]octan-8-yl)-7-(2-cyanoethyl)-3-(3-(dimethylamino)azetidin-1-yl)-5-fluoro-6-(3-hydroxynaphthalen-1-yl)isoquinoline-4-carbonitrile] cannot be ordered by IC50: no more than 100 nM for the first, 100 to 1000 nM for the second.

CN(C)C1CN(c2nc(N3C4CCC3CNC4)c3cc(CCC#N)c(-c4cc(O)cc5ccccc45)c(F)c3c2Cl)C1 [Example 2, 3-(1-(3,8-diazabicyclo[3.2.1]octan-8-yl)-4-chloro-3-(3-(dimethylamino)azetidin-1-yl)-5-fluoro-6-(3-hydroxynaphthalen-1-yl)isoquinolin-7-yl)propanenitrile] and Cc1c(N2CC(N(C)C)C2)nc(N2C3CCC2CNC3)c2cc(CCC#N)c(-c3cc(O)cc4ccccc34)c(F)c12 [Example 3, 3-(1-(3,8-diazabicyclo[3.2.1]octan-8-yl)-3-(3-(dimethylamino)azetidin-1-yl)-5-fluoro-6-(3-hydroxynaphthalen-1-yl)-4-methylisoquinolin-7-yl)propanenitrile] fall in the same range of IC50: 100 to 1000 nM for the first, 100 to 1000 nM for the second.

First: CN(C)C1CN(c2nc(N3C4CCC3CNC4)c3cc(CCC#N)c(-c4cc(O)cc5ccccc45)c(F)c3c2-c2ccccc2)C1 [Example 4, 3-(1-(3,8-diazabicyclo[3.2.1]octan-8-yl)-3-(3-(dimethylamino)azetidin-1-yl)-5-fluoro-6-(3-hydroxynaphthalen-1-yl)-4-phenylisoquinolin-7-yl)propanenitrile]
Second: CN(C)C1CN(c2nc(N3C4CCC3CNC4)c3cc(CCC#N)c(-c4cc(O)cc5ccccc45)c(F)c3c2C2CC2)C1 [Example 5, 3-(1-(3,8-diazabicyclo[3.2.1]octan-8-yl)-4-cyclopropyl-3-(3-(dimethylamino)azetidin-1-yl)-5-fluoro-6-(3-hydroxynaphthalen-1-yl)isoquinolin-7-yl)propanenitrile]
The IC50 of the first is higher: 5000 to 10000 nM for the first, 100 to 1000 nM for the second. The second is the more potent here.

CN1CCC[C@H]1COc1nc(N2C3CCC2CNC3)c2cc(CCC#N)c(-c3cc(O)cc4ccccc34)c(F)c2c1C#N [Example 7, 1-(3,8-diazabicyclo[3.2.1]octan-8-yl)-7-(2-cyanoethyl)-5-fluoro-6-(3-hydroxynaphthalen-1-yl)-3-(((S)-1-methylpyrrolidin-2-yl)methoxy)isoquinoline-4-carbonitrile] and CN1CCC(Oc2nc(N3C4CCC3CNC4)c3cc(CCC#N)c(-c4cc(O)cc5ccccc45)c(F)c3c2C#N)CC1 [Example 8, 1-(3,8-diazabicyclo[3.2.1]octan-8-yl)-7-(2-cyanoethyl)-5-fluoro-6-(3-hydroxynaphthalen-1-yl)-3-((1-methylpiperidin-4-yl)oxy)isoquinoline-4-carbonitrile] fall in the same range of IC50: 100 to 1000 nM for the first, 100 to 1000 nM for the second.

CN(C)Cc1cccc(-c2nc(N3C4CCC3CNC4)c3cc(CCC#N)c(-c4cc(O)cc5ccccc45)c(F)c3c2C#N)c1 [Example 9, 1-(3,8-diazabicyclo[3.2.1]octan-8-yl)-7-(2-cyanoethyl)-3-(3-((dimethylamino)methyl)phenyl)-5-fluoro-6-(3-hydroxynaphthalen-1-yl)isoquinoline-4-carbonitrile] and CN(C)C1CN(c2nc(N3C[C@H]4CC[C@@H]3CN4)c3cc(CCC#N)c(-c4cc(O)cc5ccccc45)c(F)c3c2C#N)C1 [Example 10, 1-((1R,4R)-2,5-diazabicyclo[2.2.2]octan-2-yl)-7-(2-cyanoethyl)-3-(3-(dimethylamino)azetidin-1-yl)-5-fluoro-6-(3-hydroxynaphthalen-1-yl)isoquinoline-4-carbonitrile] fall in the same range of IC50: 100 to 1000 nM for the first, 100 to 1000 nM for the second.

CN(C)C1CN(c2nc(N3C[C@@H](N)C[C@H]3CO)c3cc(CCC#N)c(-c4cc(O)cc5ccccc45)c(F)c3c2C#N)C1 [Example 11, 1-((2S,4S)-4-amino-2-(hydroxymethyl)pyrrolidin-1-yl)-7-(2-cyanoethyl)-3-(3-(dimethylamino)azetidin-1-yl)-5-fluoro-6-(3-hydroxynaphthalen-1-yl)isoquinoline-4-carbonitrile] and C[C@@H]1C[C@H](N)CN1c1nc(N2CC(N(C)C)C2)c(C#N)c2c(F)c(-c3cc(O)cc4ccccc34)c(CCC#N)cc12 [Example 14, 1-((2R,4S)-4-amino-2-methylpyrrolidin-1-yl)-7-(2-cyanoethyl)-3-(3-(dimethylamino)azetidin-1-yl)-5-fluoro-6-(3-hydroxynaphthalen-1-yl)isoquinoline-4-carbonitrile] cannot be ordered by IC50: 100 to 1000 nM for the first, no more than 100 nM for the second.

CN(C)C1CN(c2nc(N3CCC(CC#N)C3)c3cc(CCC#N)c(-c4cc(O)cc5ccccc45)c(F)c3c2C#N)C1 (stereo not shown) [Example 12, 7-(2-cyanoethyl)-1-(3-(cyanomethyl)pyrrolidin-1-yl)-3-(3-(dimethylamino)azetidin-1-yl)-5-fluoro-6-(3-hydroxynaphthalen-1-yl)isoquinoline-4-carbonitrile] and CN(C)C1CN(c2nc(N3CC[C@H](N)C3)c3cc(CCC#N)c(-c4cc(O)cc5ccccc45)c(F)c3c2C#N)C1 [Example 13, 1-((S)-3-aminopyrrolidin-1-yl)-7-(2-cyanoethyl)-3-(3-(dimethylamino)azetidin-1-yl)-5-fluoro-6-(3-hydroxynaphthalen-1-yl)isoquinoline-4-carbonitrile] cannot be ordered by IC50: no more than 100 nM for the first, no more than 100 nM for the second.

N#Cc1c(OC[C@@]23CCCN2C[C@H](F)C3)nc(N2CC3CCC(C2)N3)c2cnc(-c3cc(O)cc4ccccc34)c(F)c12 [Example 15, 1-(3,8-diazabicyclo[3.2.1]octan-3-yl)-5-fluoro-3-(((2R,7aS)-2-fluorotetrahydro-1H-pyrrolizin-7a(5H)-yl)methoxy)-6-(3-hydroxynaphthalen-1-yl)-2,7-naphthyridine-4-carbonitrile] and CCc1c(F)ccc2cc(O)cc(-c3ncc4c(N5CC6CCC(C5)N6)nc(N5CC(C)(N(C)C)C5)c(C#N)c4c3F)c12 [Example 16, 1-(3,8-diazabicyclo[3.2.1]octan-3-yl)-3-(3-(dimethylamino)-3-methylazetidin-1-yl)-6-(8-ethyl-7-fluoro-3-hydroxynaphthalen-1-yl)-5-fluoro-2,7-naphthyridine-4-carbonitrile] cannot be ordered by IC50: no more than 100 nM for the first, no more than 100 nM for the second.
